The subject of test [1] is Passive Cutaneous Anaphylaxis. The test can be described thus: Passive Cutaneous Anaphylaxis (PCA) Assay, in vivo anti-allergic activity. To be noted: for ED50 (dose reducing the size of the blued area by 50%) / ED50: estimated from dose response curves; for ED50: read-out: ED50 (dose reducing the size of the blued area by 50%). The arrangement: species or system rat. The protocol: Passive Cutaneous Anaphylaxis (PCA) Assay
Representative compounds of the present invention were tested comparatively with cromoglycate to determine in vivo anti-allergic activity. The anti-allergic properties were ascertained in rats by the Passive Cutaneous Anaphylaxis test (PCA) essentially as described by Goose and Blair, Immunology, 16: 749-760 (1969).
Rat serum was diluted so that skin reactions with diameters between 10 and 15 mm in unsensitized rats were produced. The PCA test was performed in duplicate by injecting 0.1 ml of this antiserum dilution on each side of the shaved back of rats. Rats so treated were injected intravenously (i.v.) twenty-four hours later with 0.02 mg ovalbumin in 0.5 ml of 1% Evans Blue solution within five minutes after intravenous administration or 30 minutes after oral administration of the test compounds. Thirty minutes after the ovalbumin challenge the rats were killed by CO2 -asphyxiation, and the skin was reflected. The diameters, in millimeters, of the blued areas were measured and the mean diameter was determined. The circular area was calculated, and the mean area in square millimeters of the control group was considered as 100%. The results of the compound test groups were expressed as a percentage change from these control values. From dose response curves the dose reducing the size of the blued area by 50% (ED50) was estimated.

The conditions of test [2]: cited from earlier work.
[3] abbreviates: p.o., 30 minutes before ovalbumin challenge.
The mark [4] stands for this setting: Rattus norvegicus, po, 30 minutes before ovalbumin challenge.
Setting [5] is: Rattus norvegicus, 0.5 h, 10 mg/kg, p.o., oral administration 30 minutes before ovalbumin challenge, blued area vs control.
Setting [6] is: Rattus norvegicus, iv, ovalbumin challenge within five minutes.

Counter-ions that a name gives are not always drawn. Like-named read-outs stand apart in the source and are kept apart here.

For the compound `O=C(O)c1cc(=O)c2c(OCC(O)COc3cccc4oc(C(=O)O)cc(=O)c34)cccc2o1` [Cromoglycate], in test [1] (setting [3]), the “ED50 (dose reducing the size of the blued area by 50%)” value was “Inactive”. Moreover, in test [2] (given orally), the “antiallergic activity when given orally” value was “not active”. In addition, the “bronchodilator when given by inhalation as a solid” value in test [2] (inhalation as a solid) was “effective”.
For orientation: ED50 means the midpoint of the dose-response relation. In the case of `CCOC(=O)C(=O)Nc1ccc(C=Cc2ccncn2)cc1` [Example 1, Ethyl 2-(4-pyrimidinyl)ethenylphenyl-4 oxamate], the ED50 in test [1] (setting [4]) was 1.4 mg/kg.
What is called inhibition in vivo is the share of the control response that was lost under treatment. A high value points to a response far below the control. In test [1] (Rattus norvegicus, 0.5 h, 3 mg/kg, i.v., ovalbumin challenge within five minutes after intravenous administration), `O=C(O)C(=O)Nc1ccc(C=Cc2ccncn2)cc1` [Example 2, 2-(4-Pyrimidinyl)ethenylphenyl-4 oxamic acid ethanolamine salt] gave an inhibition in vivo at 3 mg/kg of 63%.
Turning to `CCOC(=O)C(=O)Nc1ccc(C=Cc2ccnc(NC(=O)C(=O)OCC)n2)cc1` [Example 3, Ethyl 2-(2-ethoxyoxalylaminopyrimidin-4-yl)-ethenylphenyl-4 oxamate], the median effective dose (ED50) in test [1] (setting [4]) is 10 mg/kg.
Same read-out and setting: under `CCOC(=O)C(=O)Nc1cccc(C=Cc2ccncn2)c1` [Example 4, Ethyl 2-(4-pyrimidinyl)ethenylphenyl-3 oxamate] stands 2.8 mg/kg.
For the compound `O=C(O)C(=O)Nc1cccc(C=Cc2ccncn2)c1` [Example 5, 2-(4-Pyrimidinyl)ethenylphenyl-3 oxamic acid ethanolamine salt], the 50% effective dose (ED50) in test [1] (setting [4]) is 12.3 mg/kg.
For the compound `CCOC(=O)C(=O)Nc1ccccc1C=Cc1ccncn1` [Example 6, Ethyl 2-(4-pyrimidinyl)ethenylphenyl-2 oxamate], in test [1] (setting [5]), the inhibition in vivo at 10 mg/kg worked out at 20%.
Consider `O=C(O)C(=O)Nc1ccccc1C=Cc1ccncn1` [Example 7, 2-(4-Pyrimidinyl)ethenylphenyl-2 oxamic acid ethanolamine salt], for which the ED50 in test [1] (setting [4]) was 8 mg/kg.
The same measure, in the same setting: to `CCOC(=O)C(=O)Nc1ccc(C=Cc2ccncn2)c(O)c1` [Example 8, Ethyl 2-(4-pyrimidinyl)ethenyl-2-hydroxyphenyl-4 oxamate] belongs 4.5 mg/kg.
For the compound `CCOC(=O)C(=O)Nc1cc(C=Cc2ccncn2)ccc1OCCN(C)C` [Example 11, Ethyl 2-(4-pyrimidinyl)ethenyl-4-N,N--dimethylaminoethoxyphenyl-3 oxamate], the inhibition in vivo at 10 mg/kg in test [1] (setting [5]) was determined as 9%.
In the case of `CCOC(=O)C(=O)Nc1ccc(C=Cc2ccncn2)c(NC(=O)C(=O)OCC)c1` [Example 12, Diethyl 2-(4-pyrimidinyl)ethenylphenyl-2,4-dioxamate], in test [1] (setting [4]), the median effective dose (ED50) was 2 mg/kg.
Still for that read-out and setting: under `CCOC(=O)C(=O)Nc1ccc(C=Cc2cc(OCC)nc(OCC)n2)cc1` [Example 13, Ethyl 2-(2,6-diethoxypyrimidin-4-yl)ethenylphenyl-4 oxamate] stands 30 mg/kg; under `CCOC(=O)C(=O)Nc1ccc(C=Cc2cc(N)nc(C)n2)cc1` [Example 14, Ethyl 2-(2-methyl-6-aminopyrimidin-4-yl)ethenyl phenyl-4 oxamate], 10 mg/kg; under `CCOC(=O)C(=O)Nc1ccc(C=Cc2cc(C)ncn2)cc1` [Example 15, Ethyl 2-(6-methylpyrimidin-4-yl)ethenylphenyl-4 oxamate], 1.1 mg/kg.
As to `CCOC(=O)C(=O)Nc1cccc(C=Cc2ccnc(NC(C)=O)n2)c1` [Example 16, Ethyl 2-(2-acetamidopyrimidin-4-yl)ethenylphenyl-3 oxamate], 10 mg/kg produced 42% inhibition in vivo in test [1] (setting [5]).
`CC(=O)Nc1nccc(C=Cc2cccc(NC(=O)C(=O)O)c2)n1` [Example 17, 2-(2-Acetamidopyrimidin-4-yl)ethenylphenyl-3 oxamic acid tromethane salt]: in test [1] (setting [5]), at 10 mg/kg the inhibition in vivo was 37%.
`CCOC(=O)C(=O)Nc1ccc(C=Cc2cccnn2)cc1` [Example 18, Ethyl 2-(3-pyridazinyl)ethenylphenyl-4 oxamate]: the ED50 in test [1] (setting [4]) was 1 mg/kg.
Take `O=C(O)C(=O)Nc1ccc(C=Cc2cccnn2)cc1` [Example 19, 2-(3-Pyridazinyl)ethenylphenyl-4 oxamic acid ethanolamine salt]: at 10 mg/kg the inhibition in vivo in test [1] (setting [5]) was 0%.
With `CCOC(=O)C(=O)Nc1ccc(C=Cc2cnccn2)cc1` [Example 20, Ethyl 2-(2-pyrazinyl)ethenylphenyl-4 oxamate], the ED50 in test [1] (setting [4]) is 4.6 mg/kg.
In the case of `O=C(O)C(=O)Nc1ccc(C=Cc2cnccn2)cc1` [Example 21, 2-(2-Pyrazinyl)ethenylphenyl-4 oxamic acid sodium salt], the median effective dose (ED50) in test [1] (setting [4]) was 10 mg/kg.
As for `CCOC(=O)C(=O)Nc1cccc(C=Cc2cnccn2)c1` [Example 22, Ethyl 2-(2-pyrazinyl)ethenylphenyl-3 oxamate], the ED50 in test [1] (setting [4]) is 4 mg/kg.
The same measure, in the same setting: to `O=C(O)C(=O)Nc1cccc(C=Cc2cnccn2)c1` [Example 23, 2-(2-Pyrazinyl)ethenylphenyl-3 oxamic acid ethanolamine salt] belongs < 1 mg/kg.
On the same count and under the same terms, to `CCOC(=O)C(=O)Nc1ccc(C=Cc2cc(NC(=O)C(=O)OCC)nc(C)n2)cc1` [Example 24, Ethyl 2-(2-methyl-6-ethoxyoxalylaminopyrimidin-4-yl)-ethenylphenyl-4 oxamate] belongs 0.3 mg/kg; to `Cc1nc(C=Cc2ccc(NC(=O)C(=O)O)cc2)cc(NC(=O)C(=O)O)n1` [Example 25, 2-(2-Methyl-6-carboxycarbonylaminopyrimidin-4-yl)-ethenylphenyl-4 oxamic acid hydrate diethanolamine salt], 4 mg/kg.
In test [1] (setting [5]), `CCOC(=O)C(=O)Nc1cccc(C=Cc2cc(NC(=O)C(=O)OCC)nc(C)n2)c1` [Example 26, Ethyl 2-(2-methyl-6-ethoxyoxalyl-aminopyrimidin-4-yl)-ethenylphenyl-3 oxamate hemihydrate] showed an inhibition in vivo at 10 mg/kg of 64%. The ED50 in test [1] (setting [4]) is < 10 mg/kg.
In turn, `Cc1nc(C=Cc2cccc(NC(=O)C(=O)O)c2)cc(NC(=O)C(=O)O)n1` [Example 27, 2-(2-Methyl-6-carboxycarbonyl-aminopyrimidin-4-yl)-ethenylphenyl-3 oxamic acid di-tromethane salt] registered an inhibition in vivo at 10 mg/kg in test [1] (setting [5]) of 0%. Also, the ED50 in test [1] (setting [6]) was 0.03 mg/kg.
In test [1] (setting [5]), `CCOC(=O)C(=O)Nc1cccc(C=Cc2ccnc(NC(=O)C(=O)OCC)n2)c1` [Example 28, Ethyl 2-(2-ethoxyoxalylamino-pyrimidin-4-yl)ethenyl-phenyl-3 oxamate] returned an inhibition in vivo at 10 mg/kg of 5%.
As to `O=C(O)C(=O)Nc1cccc(C=Cc2ccnc(NC(=O)C(=O)O)n2)c1` [Example 29, 2-(2-Carboxycarbonylamino-pyrimidin-4-yl)ethenyl-phenyl-3 oxamic acid tetra-sodium salt di-hydrate], the “% Inhibition (repeat)” value in test [1] (10 mg/kg, p.o., repeat test) turned out to be 2%. In test [1] (setting [5]), this compound gave an inhibition in vivo at 10 mg/kg of 67%.
As to `CCOC(=O)C(=O)Nc1ccc(C=Cc2nccnc2CC)cc1` [Example 30, Ethyl 2-(3-ethylpyrazin-2-yl)ethenylphenyl-4 oxamate], the inhibition in vivo at 10 mg/kg in test [1] (setting [5]) came to 6%.
Still for that read-out and setting: under `CCc1nccnc1C=Cc1ccc(NC(=O)C(=O)O)cc1` [Example 31, 2-(3-Ethylpyrazin-2-yl)ethenyl-phenyl-4 oxamic acid ethanolamine salt] stands 15%.
On the same count and under the same terms, under `CCOCCOC(=O)C(=O)Nc1ccc(C=Cc2cnccn2)cc1` [Example 32, Ethoxyethyl 2-(2-pyrazinyl)ethenylphenyl-4 oxamate] stands 46%; under `CCOCCOC(=O)C(=O)Nc1ccc(C=Cc2cc(N)nc(C)n2)cc1` [Example 33, Ethoxyethyl 2-(2-methyl-6-aminopyrimidin-4-yl)-ethenylphenyl-4 oxamate hemihydrate], 52%.
For the compound `O=C(O)C(=O)Nc1ccc(C=Cc2cnccn2)c(NC(=O)C(=O)O)c1` [Example 35, 2-(2-Pyrazinyl)ethenylphenyl-2,4 dioxamic acid di-ethanolamine salt], the 50% effective dose (ED50) in test [1] (setting [6]) is 0.53 mg/kg.
The same measure, in the same setting: to `O=C(O)C(=O)Nc1ccc(C=Cc2ccncn2)c(NC(=O)C(=O)O)c1` [Example 36, 2-(4-Pyrimidinyl)ethenylphenyl-2,4 dioxamic acid di-ethanolamine salt] belongs 0.05 mg/kg.
The % Inhibition is the share of the control response that was lost under treatment. High values mean strong suppression, low ones little suppression. Take `CCOC(=O)C(=O)Nc1cc(C=Cc2ccc(Cl)nn2)cc(NC(=O)C(=O)OCC)c1Cl` [Example 37, Diethyl 2-(6-chloropyridazin-3-yl)ethenyl (4-chlorophenyl)-3,5dioxamate]: the “% Inhibition” value in test [1] (10 mg/kg, p.o., oral administration 30 minutes before ovalbumin challenge, blued area vs control) amounted to 54%.
As to “Ethyl 2-(4-pyrimidinyl)ethenyl-6-chlorophenyl-3 oxamate [Example 9]”, in test [1] (setting [3]), the “ED50 (dose reducing the size of the blued area by 50%)” value was 2 mg/kg, p.o.
